Series [1] relates to PC3 cells. Kind of series: Cell proliferation assay. Format: cell-based, human. As to conditions: 5 days.
The test system of series [2] is MDA-MB-468 cells. Nature of the series: Cell proliferation assay. Format: cell-based. As to conditions: 5 days.
The test system of series [3] is T-AKT. Nature of the series: T-AKT degradation in PC3 cells. It is filed as cell-based, human. As to conditions: for T-AKT level after washout: 48 h post-treatment.
Series [4] concerns total AKT (T-AKT). Nature of the series: Immunoblotting of total AKT in BT474 cells. To be noted: 24 h, western blot; for AKT (T-AKT) degradation: BT474 cells, 1, 5 and 10 μM. Format: cell-based. For orientation: In western blotting, separated proteins are transferred to a membrane and probed.
Series [5] concerns BT474 cells. Kind of series: Cell colony formation assay. It is filed as cell-based. To be noted: 14 days.
Series [6] deals with P-AKT (S473), P-PRAS40 (T246), P-S6 (S240/244). Kind of series: Immunoblotting of P-AKT and downstream signaling in BT474 cells. As to conditions: 24 h. Format: cell-based.
Series [7] relates to P-PRAS40, P-S6. Kind of series: Downstream signaling in PC3 cells. To be noted: for downstream signaling inhibition after washout: 1 μM for 24 h, then washout.
Series [8] in a line: Mouse pharmacokinetic study. Format: in vivo, mice. As to conditions: male, Swiss Albino, plasma, ip, 150 mg/kg.
Series [9] has as its system PC-3 xenografts. To be noted: PC3 xenograft, 75 mg/kg once daily IP; cited from earlier work.
The subject of series [10] is T-AKT, P-AKT, P-PRAS40. Kind of series: Western blotting analysis of xenograft tumor samples. To be noted: PC3 xenograft, 75 mg/kg once daily IP, end of study. It is filed as in vivo, mice.
The test system of series [11] is PC-3 xenografts. It is filed as in vivo. As to conditions: PC3 xenograft mice, 75 mg/kg once daily IP, 22 days.
For series [12], the system named is T-AKT. Nature of the series: Competition. It is filed as cell-based, human. As to conditions: PC3 cells, then compound 24 h.
[13] abbreviates: BT474 cells, 1, 5 and 10 μM, P-PRAS40 and P-S6, western blot.
[14] abbreviates: BT474 cells, 1 μM, western blot.

Consider ten compounds from PMC8900464 (Journal of medicinal chemistry, 2022).

Broadly, the GI50 is the concentration giving 50% growth inhibition. A word on the AUC: it is the area under the concentration-time curve, a measure of exposure. The low end stands for less exposure, the high end for more exposure. As usually defined, the Cmax is the peak of the concentration-time curve. What is called Tmax is the time from dosing to the highest level.

“Also recorded” adds a separate entry of the source.

With `CN1C(=O)CCC(N2C(=O)c3cccc(NCCOCCOCCOCCOCCOCCC(=O)N4CCN(CC[C@H](NC(=O)C5(N)CCN(c6ncnc7[nH]ccc67)CC5)c5ccc(Cl)cc5)CC4)c3C2=O)C1=O` (stereo partly drawn) [Compound 43, 4-Amino-N-((1S)-1-(4-chlorophenyl)-3-(4-(1-((2-(1-methyl-2,6-dioxopiperidin-3-yl)-1,3-dioxoisoindolin-4-yl)amino)-3,6,9,12,15-pentaoxaoctadecan-18-oyl)piperazin-1-yl)propyl)-1-(7H-pyrrolo-[2,3-d]pyrimidin-4-yl)piperidine-4-carboxamide], the GI50 result in series [1] and in series [2] was “inactive” throughout. In addition, the T-AKT protein level result in series [3] (concentrations up to 10 μM, 24 h) is listed as “did not reduce the T-AKT protein level”.
With `NC1(C(=O)N[C@@H](CCN2CCN(C(=O)CCOCCOCCOCCOCCOCCOc3cccc4c3C(=O)N(C3CCC(=O)NC3=O)C4=O)CC2)c2ccc(Cl)cc2)CCN(c2ncnc3[nH]ccc23)CC1` (stereo partly drawn) [Compound 40, 4-Amino-N-((1S)-1-(4-chlorophenyl)-3-(4-(1-((2-(2,6-dioxopiperidin-3-yl)-1,3-dioxoisoindolin-4-yl)oxy)-3,6,9,12,15-pentaoxaoctadecan-18-oyl)piperazin-1-yl)propyl)-1-(7H-pyrrolo[2,3-d]pyrimidin-4-yl)piperidine-4-carboxamide], the “AKT (T-AKT) degradation” value in series [4] is “did not improve”. The “inhibition of colony formation” value in series [5] is “did not improve”.
Regarding `NC1(C(=O)N[C@@H](CCN2CCN(C(=O)CCOCCOCCOCCOCCOCCNc3cccc4c3C(=O)N(C3CCC(=O)NC3=O)C4=O)CC2)c2ccc(Cl)cc2)CCN(c2ncnc3[nH]ccc23)CC1` (stereo partly drawn) [Compound 35, 4-Amino-N-((1S)-1-(4-chlorophenyl)-3-(4-(1-((2-(2,6-dioxopiperidin-3-yl)-1,3-dioxoisoindolin-4-yl)amino)-3,6,9,12,15-pentaoxaoctadecan-18-oyl)piperazin-1-yl)propyl)-1-(7H-pyrrolo[2,3-d]-pyrimidin-4-yl)piperidine-4-carboxamide], in series [6] (BT474 cells, 1, 5 and 10 μM, among 32–38), the “inhibition of phosphorylation of ribosomal protein S6” value is reported as “most effective in inhibiting the phosphorylation of ribosomal protein S6”. Further, in series [7] (24 h post-treatment), the “downstream signaling inhibition after washout” value is on record as “near fully recovered”. The “AKT protein level after washout” value in [3] (1 μM for 24 h, then washout, 24 h post-treatment) is “rebounded substantially”. For the same compound, in series [3] (1 μM for 24 h, then washout), the “T-AKT level after washout” value is reported as “completely recovered”. In [8], the AUC was 32500 ng·h/mL, the peak level (Cmax) was 8 µM and the Tmax was 1 h.
Regarding `Cc1ncsc1-c1ccc([C@H](C)NC(=O)[C@@H]2C[C@@H](O)CN2C(=O)[C@@H](NC(=O)CCCCCCCCCC(=O)N2CCN(CC[C@H](NC(=O)C3(N)CCN(c4ncnc5[nH]ccc45)CC3)c3ccc(Cl)cc3)CC2)C(C)(C)C)cc1` [Compound 23, 4-Amino-N-((S)-1-(4-chlorophenyl)-3-(4-(11-(((S)-1-((2S,4R)-4-hydroxy-2-(((S)-1-(4-(4-methylthiazol-5-yl)phenyl)ethyl)carbamoyl)-pyrrolidin-1-yl)-3,3-dimethyl-1-oxobutan-2-yl)amino)-11-oxoundecanoyl)piperazin-1-yl)propyl)-1-(7H-pyrrolo[2,3-d]-pyrimidin-4-yl)piperidine-4-carboxamide], in series [6] (setting [13]), the downstream signaling inhibition result is recorded as “did not show significant difference from 19”. Also, in series [4], the “AKT (T-AKT) degradation” value is “did not show significant difference from 19”. The “inhibition of colony formation” value in series [5] is “did not show significant difference from 19”.
As to “4-Amino-N-[(1S)-1-(4-chlorophenyl)-3-hydroxypropyl]-1-(7H-pyrrolo[2,3-d]pyrimidin-4-yl)piperidine-4-carboxamide [AZD5363, reference compound]”, the “downstream signaling (PRAS40 and S6 phosphorylation)” value in series [6] (setting [14]) was “effectively inhibited the phosphorylation of downstream PRAS40 and ribosomal protein S6”. Further, in series [6] (setting [14]), the “phosphorylated AKT level” value is recorded as “paradoxically upregulated the phosphorylated AKT level”. In addition, the “downstream signaling inhibition after washout” value in series [7] (24 h post-treatment) is “near fully recovered”. The “PRAS40 and S6 phosphorylation” value in series [7] (1 μM, 24 h) was “effectively inhibited PRAS40 and S6 phosphorylation”. Moreover, the tumor growth inhibition in series [9] is 75%. For the same compound, the GI50 in series [1] is 6.5 ± 2.9 µM; in series [2], 3.8 ± 1.6 µM. Besides, the T-AKT protein level entry in series [4] (BT474 cells, 1 μM) is recorded as “downregulated the T-AKT protein level”. Moreover, the AKT protein level entry in [3] (1 μM, 24 h) is “did not significantly reduce the AKT protein level”.
With `NC1(C(=O)N[C@@H](CCN2CCN(C(=O)CCOCCOCCOCCOCCOCCCc3cccc4c3C(=O)N(C3CCC(=O)NC3=O)C4=O)CC2)c2ccc(Cl)cc2)CCN(c2ncnc3[nH]ccc23)CC1` (some centres unmarked) [Compound 41], the “AKT (T-AKT) degradation” value in [4] was “did not improve”. Besides, the “inhibition of colony formation” value in [5] is “did not improve”.
`Cc1ncsc1-c1ccc(CNC(=O)[C@@H]2C[C@@H](O)CN2C(=O)[C@@H](NC(=O)CCCCCCCCCCCC(=O)N2CCN(CC[C@H](NC(=O)C3(N)CCN(c4ncnc5[nH]ccc45)CC3)c3ccc(Cl)cc3)CC2)C(C)(C)C)cc1` [Compound 21, 4-Amino-N-((S)-1-(4-chlorophenyl)-3-(4-(13-(((S)-1-((2S,4R)-4-hydroxy-2-((4-(4-methylthiazol-5-yl)benzyl)carbamoyl)pyrrolidin-1-yl)-3,3-dimethyl-1-oxobutan-2-yl)amino)-13-oxotridecanoyl)-piperazin-1-yl)propyl)-1-(7H-pyrrolo[2,3-d]pyrimidin-4-yl)-piperidine-4-carboxamide]: the downstream signaling inhibition result in [6] (setting [13]) is on record as “slightly enhanced downstream signaling inhibition compared to 19”. The “inhibition of colony formation” value in [5] is listed as “highly effective in inhibiting colony formation”.
On to `Cc1ncsc1-c1ccc(CNC(=O)[C@@H]2C[C@@H](O)CN2C(=O)[C@@H](NC(=O)CCCCCC(=O)N2CCN(CC[C@H](NC(=O)C3(N)CCN(c4ncnc5[nH]ccc45)CC3)c3ccc(Cl)cc3)CC2)C(C)(C)C)cc1` [Compound 15, 4-Amino-N-((S)-1-(4-chlorophenyl)-3-(4-(7-(((S)-1-((2S,4R)-4-hydroxy-2-((4-(4-methylthiazol-5-yl)benzyl)carbamoyl)pyrrolidin-1-yl)-3,3-dimethyl-1-oxobutan-2-yl)amino)-7-oxoheptanoyl)-piperazin-1-yl)propyl)-1-(7H-pyrrolo[2,3-d]pyrimidin-4-yl)-piperidine-4-carboxamide], for which, in series [6] (BT474 cells, 5 μM, western blot), the downstream signaling inhibition result is recorded as “significant downstream signaling inhibition”. The AKT degradation entry in [4] (BT474 cells, 5 μM) is recorded as “improved AKT degradation”.
Consider `Cc1ncsc1-c1ccc(CNC(=O)[C@@H]2C[C@@H](O)CN2C(=O)[C@@H](NC(=O)CCCCCCCCCCC(=O)N2CCN(CC[C@H](NC(=O)C3(N)CCN(c4ncnc5[nH]ccc45)CC3)c3ccc(Cl)cc3)CC2)C(C)(C)C)cc1` [Compound 20, 4-Amino-N-((S)-1-(4-chlorophenyl)-3-(4-(12-(((S)-1-((2S,4R)-4-hydroxy-2-((4-(4-methylthiazol-5-yl)benzyl)carbamoyl)pyrrolidin-1-yl)-3,3-dimethyl-1-oxobutan-2-yl)amino)-12-oxododecanoyl)-piperazin-1-yl)propyl)-1-(7H-pyrrolo[2,3-d]pyrimidin-4-yl)-piperidine-4-carboxamide], for which, in [6] (setting [13]), the downstream signaling inhibition result is given as “slightly enhanced downstream signaling inhibition compared to 19”. Also, in [7] (48 h post-treatment), the “downstream signaling inhibition after washout” value is on record as “partially recovered”. Further, in [10], the “T-AKT and P-AKT in tumor samples” value was “substantially degraded T-AKT and P-AKT”; the “downstream signaling (PRAS40 phosphorylation) in tumor samples” value is listed as “effectively inhibited the downstream signaling”. The tolerability entry in [11] is “well tolerated”. For the same compound, the “inhibition of colony formation” value in [5] was “highly effective in inhibiting colony formation; also recorded: effectively inhibited colony formation”. Besides, the “AKT degradation after pretreatment with MLN4924 or MG-132” value in series [12] (2 h pretreatment) is reported as “significantly diminished the AKT degradation effect”. The “AKT degradation after pretreatment with excess AZD5363” value in series [12] (AZD5363 (1 μM) 2 h) was “rescued the AKT protein level”. Further, the “AKT degradation after pretreatment with excess VHL ligand VHL-2” value in [12] (VHL-2 (1 μM) 2 h) is on record as “restored the AKT protein level effectively”. In addition, in [3] (1 μM), the “time to complete depletion of T-AKT” value is at most 8 h. The “T-AKT level after washout” value in series [3] (1 μM for 24 h, then washout) is “partially recovered”. Moreover, in [3] (washout experiments), the “duration of sustained AKT degradation post treatment” value was in the range of 1 to 2 days.
On to `NC1(C(=O)N[C@@H](CCN2CCN(C(=O)CCCCNc3cccc4c3C(=O)N(C3CCC(=O)NC3=O)C4=O)CC2)c2ccc(Cl)cc2)CCN(c2ncnc3[nH]ccc23)CC1` (stereo partly drawn) [Compound 27, 4-Amino-N-((1S)-1-(4-chlorophenyl)-3-(4-(5-((2-(2,6-dioxopiperidin-3-yl)-1,3-dioxoisoindolin-4-yl)amino)pentanoyl)piperazin-1-yl)propyl)-1-(7H-pyrrolo[2,3-d]pyrimidin-4-yl)piperidine-4-carboxamide], for which, in series [6] (setting [13]), the downstream signaling inhibition entry is reported as “moderate effectiveness”. The “AKT (T-AKT) degradation” value in series [4] was “moderate effectiveness”.
